Data as given in patent publication US6617491B2, “Use of drosophila melanogaster as a model for screening psychostimulant plant materials” (Council of Scientific & Industrial Research, priority 2001, dated 2003).

Experiments:
Sh^5eag^1 mutant flies [1] = conditions: from Sharma and Kumar, Ser. No. 09/789,525; cited from earlier work
Sh^5eag^1 mutant flies [2] = test: Time of recovery from diethyl ether anesthesia in individual fly pairs; format: in vivo, Drosophila melanogaster; conditions: NF+PS; PS 1 mg/ml in fly food; 10 fly pairs
Experimental: Standard Drosophila manipulation methods were followed. Cultures were grown on a medium containing maize powder, sugar, yeast and Nipagin. Flies were maintained and further manipulated at room temperature. Experimental conditions were kept identical throughout. The double mutant Sh^5eag^1 was generated using standard methods of Drosophila genetics. Male flies of similar age were used in the experiment. In routine screening, flies were anesthetized in various groups and then allowed to recover in an identical manner. For further testing, individual fly pairs were used as described below. Following different treatments, flies were first anesthetized with diethyl ether and healthy looking individuals shifted to a number of empty vials in such a way that each vial received two flies, one from each treatment. Before shifting, flies from one of the two treatments were marked on their wings for the purpose of identification. Flies were allowed to recover fully. After an hour, each fly pair was subjected to the following test. […]
To understand the above activity, and others, if any, of the Acorus extracts in Drosophila in a quantitative manner, following experiments were carried out using acetone extract as the representative substance. […] First, time of recovery from ether anesthesia was measured in individual flies. […] Following this, recovery time was determined as described earlier. […]

Sh^5eag^1 mutant flies [3] = test: Spontaneous locomotor activity in flies, pair-wise visual comparison of vials on a scale of '0', '+' or '−'; format: in vivo, Drosophila melanogaster; conditions: baseline NF flies; 73 comparisons; 5th day; 20 flies per vial
Experimental: To further understand the activity profile of the plant material, flies were treated with either NF or NF containing either ethanol alone (NF+ET) or ethanol and extract both (NF+ET+EX). The ethanol concentration used was 20% (v/v). Other details were as described earlier. On 5th day, spontaneous locomotor activity in flies was pair-wise compared either between NF and NF+ET or between NF+ET and NF+ET+EX. Two vials representing the two treatments were kept side by side in an inverted position. There were 20 flies in each vial. The flies' activity in a group was visually estimated on a scale of ‘0’, ‘+’ or ‘−’, as described below. To compare between NF and NF+ET, the sum total of activity seen in the vial containing NF flies was considered ‘0’. The activity in the NF+ET vial was then given a ‘0’, ‘+’ or ‘−’, depending on whether it is equal, more or less than the activity observed in NF vial respectively. The process was repeated 73 times spanning an entire day. In this test, ethanol treated flies received 23 ‘0’s, no ‘+’ and 50 ‘−’s. […] NF+
ET and NF+ET+EX flies were similarly compared, with the activity in the former serving as baseline, i.e., ‘0’. In this test, NF+ET+EX received no ‘0’, 73 ‘+’5 and no ‘−’. […] First, ethanol decreases spontaneous locomotor activity in flies. Second, Acorus extract increases spontaneous locomotor activity in flies treated with ethanol, a CNS depressant drug.
Having observed a stimulant activity of Acorus extract in flies under the influence of alcohol, the question whether the extract also stimulates normal flies, i.e., individuals not under the drug's influence, was asked. To answer this, spontaneous locomotor activity in NF and NF+EX flies were compared, as described above. NF flies' activity served as the baseline. In the test conducted the extract treated flies received 18 ‘0’5 […] and 2 ‘−’s.

Row | Structure (SMILES) | effect on recovery from ether anesthesia in flies (Sh^5eag^1 mutant flies [1]) | recovery time from ether anesthesia (Sh^5eag^1 mutant flies [2]) | spontaneous locomotor activity: number of '0's (times equally active) (Sh^5eag^1 mutant flies [3]) | spontaneous locomotor activity: number of '+'s (times more active) (Sh^5eag^1 mutant flies [3]) | spontaneous locomotor activity: number of '−'s (times less active) (Sh^5eag^1 mutant flies [3])
1 | CCC1(c2ccccc2)C(=O)NC(=O)NC1=O [phenobarbital sodium] | causes a delay in recovery | 11.3 ± 2.38 min |  |  | 
2 | CCO [ethanol] |  |  | 23 | no | 50
